Measured values reported in patent publication US8900591B2, “Vaccines comprising mutant GPCRs with increased conformational stability relative to parent receptors” (Heptares Therapeutics Limited, priority 2010, dated 2014).

What was measured:
[1] = system: 5-HT2A, 5-HT2B and 5-HT2C serotonin receptors; conditions: cited from earlier work
[2] = system: endogenous β1AR in untransfected HEK293s; experiment: CRE-luc reporter assay on untransfected HEK293 cells; format: cell-based, human; conditions: 1 μM forskolin, non-transfected cells
Excerpt: One read-out that can be employed to assess the functional activity of the resulting sera is the impact on cAMP signalling. The CRE-luc reporter assay was employed where the CRE response from activation of AC-cAMP-PKA pathway is the read-out.
The first interim bleeds were initially evaluated only on transfected cells to assess if any functional response could be observed at this stage of immunisation. […].

Row | SMILES | potency for 5-HT2C receptors relative to 5-HT2A [1] | selectivity for 5-HT2A over 5-HT2B [1] | CRE-luc response to forskolin stimulation [2]
1 | C[C@@H](N)Cc1c2ccoc2c(Br)c2ccoc12 [Bromo-DragonFLY] | twice as potent | less than 5 × | –
2 | C=C[C@@]1(C)CC(=O)[C@]2(O)[C@@]3(C)[C@@H](O)CCC(C)(C)[C@@H]3[C@H](O)[C@H](OC(C)=O)[C@@]2(C)O1 [forskolin] | – | – | ~20,000 RLU
